Laboratory results as given in PMC4337798 (Biochimica et biophysica acta, 2010).

What was measured:
[1] = target: T1, gastric H,K-ATPase (HKα1) (Mus musculus, UniProt Q64436); experiment: K-ATPase activity dose response in gastric membrane vesicles; assay type: cell-based
[2] = target: T1, gastric H,K-ATPase (HKα1); experiment: as above; assay type: cell-based; settings: read-out: % inhibition at 100 μM

T1 sequence (Q64436 whole entry): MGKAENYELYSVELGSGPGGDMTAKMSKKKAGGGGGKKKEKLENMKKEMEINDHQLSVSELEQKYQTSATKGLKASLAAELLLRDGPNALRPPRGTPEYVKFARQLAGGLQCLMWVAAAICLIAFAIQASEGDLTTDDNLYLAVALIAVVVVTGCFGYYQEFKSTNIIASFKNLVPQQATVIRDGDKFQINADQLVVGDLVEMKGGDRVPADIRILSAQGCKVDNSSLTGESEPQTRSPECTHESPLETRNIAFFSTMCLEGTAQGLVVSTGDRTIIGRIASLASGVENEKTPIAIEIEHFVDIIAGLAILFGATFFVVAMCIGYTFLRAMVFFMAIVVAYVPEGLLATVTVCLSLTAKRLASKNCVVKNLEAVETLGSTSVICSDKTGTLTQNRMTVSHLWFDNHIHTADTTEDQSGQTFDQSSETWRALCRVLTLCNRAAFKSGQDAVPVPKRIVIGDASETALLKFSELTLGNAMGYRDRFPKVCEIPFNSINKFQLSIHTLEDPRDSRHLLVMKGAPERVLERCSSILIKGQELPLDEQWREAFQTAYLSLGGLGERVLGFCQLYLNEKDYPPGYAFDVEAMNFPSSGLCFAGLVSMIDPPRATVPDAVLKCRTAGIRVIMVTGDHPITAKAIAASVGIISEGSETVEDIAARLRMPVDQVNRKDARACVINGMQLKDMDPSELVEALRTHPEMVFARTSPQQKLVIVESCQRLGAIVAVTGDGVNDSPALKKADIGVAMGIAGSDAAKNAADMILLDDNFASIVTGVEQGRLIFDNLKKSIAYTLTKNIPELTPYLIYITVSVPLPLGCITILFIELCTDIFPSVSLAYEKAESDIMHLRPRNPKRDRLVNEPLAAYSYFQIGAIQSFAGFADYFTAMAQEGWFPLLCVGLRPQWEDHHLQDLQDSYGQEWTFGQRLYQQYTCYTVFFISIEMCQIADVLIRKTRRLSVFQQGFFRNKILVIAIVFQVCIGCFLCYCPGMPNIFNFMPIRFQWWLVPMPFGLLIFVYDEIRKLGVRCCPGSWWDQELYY
T1 sequence (P50992 whole entry partner): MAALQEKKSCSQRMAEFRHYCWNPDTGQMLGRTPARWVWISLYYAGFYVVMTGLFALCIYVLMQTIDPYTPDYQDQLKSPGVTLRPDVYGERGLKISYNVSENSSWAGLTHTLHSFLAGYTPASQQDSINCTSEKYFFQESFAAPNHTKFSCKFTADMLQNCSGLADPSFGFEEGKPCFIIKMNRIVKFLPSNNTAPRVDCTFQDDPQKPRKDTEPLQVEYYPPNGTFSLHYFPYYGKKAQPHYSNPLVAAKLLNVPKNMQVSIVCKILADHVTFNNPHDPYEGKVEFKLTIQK

| SMILES | K-ATPase activity dose response in gastric membrane vesicles [1] | inhibition at 100 µM [2] |
| --- | --- | --- |
| CCN(c1nc(N)c(C(=O)N=C(N)N)nc1Cl)C(C)C [EIPA, 5-N-ethyl-N-isopropylamiloride] | Amiloride derivatives benzamil and EIPA had similar inhibitory effects on the gastric K-ATPase activity |  |
| N=C(N)NC(=O)c1nc(Cl)c(N)nc1N [amiloride] |  | ~65% |
| NC(=NCc1ccccc1)NC(=O)c1nc(Cl)c(N)nc1N [benzamil] | Amiloride derivatives benzamil and EIPA had similar inhibitory effects on the gastric K-ATPase activity |  |
